Results taken from ChEMBL document CHEMBL4308908, “Lamellarin-inspired potent topoisomerase I inhibitors with the unprecedented benzo[g][1]benzopyrano[4,3-b]indol-6(13H)-one scaffold” (Bioorg Med Chem, 2019).

How the values were obtained:
Format in all cases: functional
St-4 = assay: Antiproliferative activity against human St-4 cells after 48 hrs by SRB assay; details: St-4, 48 h
[1] = Antiproliferative activity against human BSY1 cells after 48 hrs by SRB assay; details: BSY-1, 48 h
SF-539 = assay: Antiproliferative activity against human SF539 cells after 48 hrs by SRB assay; details: SF-539, 48 h
OVCAR-8 = assay: Antiproliferative activity against human OVCAR8 cells after 48 hrs by SRB assay; details: OVCAR-8, 48 h
NCI-H226 = assay: Antiproliferative activity against human NCI-H226 cells after 48 hrs by SRB assay; details: NCI-H226, 48 h
RXF 631 = assay: Antiproliferative activity against human RXF631L cells after 48 hrs by SRB assay; details: RXF 631, 48 h
MKN-28 = assay: Antiproliferative activity against human MKN28 cells after 48 hrs by SRB assay; details: MKN-28, 48 h
NCI-H23 = assay: Antiproliferative activity against human NCI-H23 cells after 48 hrs by SRB assay; details: NCI-H23, 48 h
SNB-75 = assay: Antiproliferative activity against human SNB75 cells after 48 hrs by SRB assay; details: SNB-75, 48 h
MCF7 = assay: Antiproliferative activity against human MCF7 cells after 48 hrs by SRB assay; details: MCF7, 48 h

GI50 (OVCAR-8): 0.0135 µM
GI50 (NCI-H226): 0.0891 µM
GI50 (MKN-28; read-out: GI50): 0.041 µM
GI50 (MKN-28; read-out: pGI50 (converted)): 0.0407 µM
GI50 (NCI-H23): 0.0049 µM
GI50 (MCF7; read-out: GI50): 0.0061 µM
GI50 (MCF7; read-out: pGI50 (converted)): 0.00617 µM
Compound: COc1cc2c(ccc3c4c(=O)oc5cc(OC(=O)[C@@H](N)C(C)C)c(OC)cc5c4n(C)c23)cc1OC(=O)[C@@H](N)C(C)C.O=C(O)C(F)(F)F.O=C(O)C(F)(F)F
GI50 (St-4): 1 µM
GI50 [1]: 0.038 µM
GI50 (SF-539): 0.00417 µM
GI50 (RXF 631): 1 µM
GI50 (SNB-75): 0.00832 µM
